Results from patent publication US20230357261A1, “ARYL HYDROCARBON RECEPTOR LIGANDS AND THEIR ANALOGUES FOR THE PREVENTION AND TREATMENT OF INFLAMMATORY DISORDERS” (The Johns Hopkins University, priority 2020, published 2023).
Entries after “also recorded” stand apart in the source; their conditions may differ.

Columns and labels:
[1] = tested on: AHR; test: AHR activation (Cyp1a1) in ileum of mice in the NEC model (Example 3); format: in vivo; conditions: mouse NEC model; 20 mg/kg/day by oral gavage for 4 days
Excerpt: (§1) Experimental NEC was induced in 7-day old mice as we have previously described, Good et al., 2015; Sodhi et al., 2018; Egan et al., 2016, by gavage feeding newborn mice with formula containing Similac Advance infant formula (Abbott Nutrition): Esbilac (PetAg) canine milk replacer, 2:1 ratio, which was supplemented with enteric bacteria made from a stock created from a specimen obtained from an infant with surgical NEC five times per day.
(§2) Additionally, the mice were subjected to hypoxia (5% 02-95% N2) for 10 min in a hypoxia chamber (Billups-Rothenberg) twice daily for 4 days. The compound #169, compound #243, compound #247 or compound #263 administered by oral gavage during the induction of NEC at the dose of 20 mg/kg body weight/day.
(§3) Age-matched breast milk-fed mouse pups were used as healthy controls. Evaluation of ileal histology by H&E staining and expression of pro-inflammatory cytokines by qRT-PCR at a fixed point in the terminal ileum 2-cm proximal to the cecum, were used to determine the disease severity.
(§4) Total RNA was isolated using the RNeasy mini kit (Qiagen) and complementary DNA was synthesized from 0.5 μg RNA using QuantiTect Reverse Transcription kit (Qiagen) following the manufacturer's protocols. The mRNA quantification was performed on the Bio-Rad CFX96 Real-Time System (Bio-Rad) using iTaq™ universal SYBR® Green supermix (Bio-Rad) and the primers listed in Table 2. The relative mRNA expression levels were normalized against the expression of the housekeeping gene ribosomal protein lateral stalk subunit P0 (Rplp0).

[2] = tested on: AHR; test: AHR activation in mouse ileal enteroids (Cyp1a1 qRT-PCR); format: cell-based; conditions: wildtype mouse enteroids, tested compound 40 uM, overnight
Description: (§5) Primary intestinal crypt cultures (enteroids) were generated from the ileum of neonatal (p7-p11) wild type and Ahr′ mice at as described, Neal et al., 2012, and maintained in Matrigel (Corning). The enteroids were digested and passed using TrypLE Express (Gibco) weekly, and used between passage 3 and 10 for all experiments. The enteroids were pre-treated with I3C ([…], 12 h), A18 (20 μM, 12 h) or human breast milk (100 μL/mL, Innovative Research, prepared by 5-minute-cenrifugation at 12,000 g and then filtration of supernatant through a 0.22-μm filter) and then treated with LPS (50 μg/mL) for 4 hours for further analysis.
(§6) Primary intestinal crypt cultures (enteroids) were generated from the ileum of neonatal (p7-p11) mice at as described, Neal et al., 2012, and maintained in Matrigel (Corning). The enteroids were digested and passed using TrypLE Express (Gibco) weekly, and used between passage 3 and 10 for all experiments. The enteroids were pre-treated with tested compound (40 uM, overnight) and then treated with LPS (50 μg/mL) for 6 hours for further analysis.
as §4

[3] = tested on: TLR4; test: TLR4 signaling in mouse ileal enteroids (LPS-induced Tnf-a qRT-PCR); format: cell-based; conditions: wildtype mouse enteroids; tested compound 40 uM overnight, then LPS 50 μg/mL 6 hours
Description: as §5, §6, §4

[4] = tested on: mouse NEC model; test: Experimental NEC in newborn mice (Example 3); format: in vivo; conditions: 20 mg/kg body weight/day for 4 days; for severity of NEC: 20 mg/kg/day
Excerpt: as §1, §2, §3, §4

## c1ccc2[nH]c(CSc3ncnc4ccccc34)nc2c1
other
  melting point: 198 to 200 °C (dec.)

## Cc1ccc2nc(SCc3nccc(OCC(F)(F)F)c3C)[nH]c2c1 [compound 18, 5-methyl-2-(((3-methyl-4-(2,2,2-trifluoroethoxy)pyridin-2-yl)methyl)thio)-1H-benzo[d]imidazole]
other
  melting point: 153 to 155 °C

## Cc1c(OCC(F)(F)F)ccnc1CSc1nc2ccc(C#N)cc2[nH]1 [compound 19, 5-cyano-2-(((3-methyl-4-(2,2,2-trifluoroethoxy)pyridin-2-yl)methyl)thio)-1H-benzo[d]-imidazole]
other
  melting point: 204 to 205 °C

## COc1ccnc(CSc2nc3ccc(F)cc3[nH]2)c1C [compound 20, 5-fluoro-2-(((3-methyl-4-methoxypyridin-2-yl)methyl)thio)-1H-benzo[d]imidazole]
other
  melting point: 153 to 155 °C

## CCOc1ccnc(CSc2nc3ccc(F)cc3[nH]2)c1C [compound 21, 5-fluoro-2-(((3-methyl-4-ethoxypyridin-2-yl)methyl)thio)-1H-benzo[d]imidazole]
other
  melting point: 102 to 104 °C

## Cc1c(Oc2ccccc2)ccnc1CSc1nc2ccc(F)cc2[nH]1 [compound 22, 5-fluoro-2-(((3-methyl-4-phenoxypyridin-2-yl)methyl)thio)-1H-benzo[d]imidazole]
other
  melting point: 134 to 136 °C

## Cc1c(OCc2ccccc2)ccnc1CSc1nc2ccc(F)cc2[nH]1 [compound 23, 5-fluoro-2-(((3-methyl-4-benzyloxypyridin-2-yl)methyl)thio)-1H-benzo[d]-imidazole]
other
  melting point: 175 to 177 °C

## Cc1ccc2nc([S+]([O-])Cc3nccc(OCC(F)(F)F)c3C)[nH]c2c1 (stereo not shown) [compound 24, 5-methyl-2-(((3-methyl-4-(2,2,2-trifluoroethoxy)pyridin-2-yl)methyl)sulfinyl)-1H-benzo[d]-imidazole]
other
  melting point: > 133 °C (dec.)

## Cc1ccc2nc(S(=O)(=O)Cc3nccc(OCC(F)(F)F)c3C)[nH]c2c1 [compound 25, 5-methyl-2-(((3-methyl-4-(2,2,2-trifluoroethoxy)pyridin-2-yl)methyl)sulfonyl)-1H-benzo[d]-imidazole]
other
  melting point: 193 to 194 °C

## COc1ccnc(CS(=O)(=O)c2nc3cc(F)ccc3[nH]2)c1C [compound 26, 5-fluoro-2-(((3-methyl-4-methoxypyridin-2-yl)methyl)sulfonyl)-1H-benzo[d]-imidazole]
other
  melting point: 192 to 193 °C

## CCOc1ccnc(CS(=O)(=O)c2nc3ccc(F)cc3[nH]2)c1C [compound 27, 5-fluoro-2-(((3-methyl-4-ethoxypyridin-2-yl)methyl)sulfonyl)-1H-benzo[d]-imidazole]
other
  melting point: 177 to 178 °C

## Cc1c(Oc2ccccc2)ccnc1CS(=O)(=O)c1nc2ccc(F)cc2[nH]1 [compound 28, 5-fluoro-2-(((3-methyl-4-phenoxypyridin-2-yl)methyl)sulfonyl)-1H-benzo[d]-imidazole]
other
  melting point: 155 to 157 °C

## Cc1c(OCc2ccccc2)ccnc1CS(=O)(=O)c1nc2ccc(F)cc2[nH]1 [compound 29, 5-fluoro-2-(((3-methyl-4-benzyloxypyridin-2-yl)methyl)sulfonyl)-1H-benzo[d]-imidazole]
other
  melting point: 185 to 188 °C

## Cc1cc2c(=O)n(Cc3ccco3)c(SCc3nc4ccccc4[nH]3)nc2s1 [compound #169]
[1]
  expression of Cyp1a1 in vivo (ileum): did not induce the expression of Cyp1a1
[2]
  activation of AHR signaling in mouse enteroids (Cyp1a1, FIG. 15a): activated AHR
[2]; listed as #169
  activation of AHR signaling in mouse enteroids (Cyp1a1, FIG. 15a): activated AHR signaling
[3]
  inhibition of TLR4 signaling in mouse enteroids (Tnf-a induction by LPS, FIG. 15b, FIG. 19): significantly inhibited TLR4 signaling
[4]
  histological injury (H&E, ileum): reduced histological injury
  severity of NEC: did not reduce the severity of NEC; also recorded: didn't not reduce the severity of NEC

## c1ccc2[nH]c(CSc3ncnc4ccccc34)nc2c1 [compound #243]
[1]
  expression of Cyp1a1 in vivo (ileum): did not induce the expression of Cyp1a1
[2]
  activation of AHR signaling in mouse enteroids (Cyp1a1, FIG. 15a): activated AHR signaling
[3]
  inhibition of TLR4 signaling in mouse enteroids (Tnf-a induction by LPS, FIG. 15b, FIG. 19): significantly inhibited TLR4 signaling
[4]
  histological injury (H&E, ileum): reduced histological injury
  severity of NEC: did not reduce the severity of NEC; also recorded: didn't not reduce the severity of NEC

## c1ccc2[nH]c(COc3ncnc4ccccc34)nc2c1 [compound #247]
[1]
  expression of Cyp1a1 in vivo (ileum): significantly induced the expression of Cyp1a1
[2]
  activation of AHR signaling in mouse enteroids (Cyp1a1, FIG. 15a): activated AHR signaling
[3]
  inhibition of TLR4 signaling in mouse enteroids (Tnf-a induction by LPS, FIG. 15b, FIG. 19): significantly inhibited TLR4 signaling
[4]
  histological injury (H&E, ileum): reduced histological injury
  severity of NEC: did not reduce the severity of NEC; also recorded: didn't not reduce the severity of NEC

## N#C/C(=C(/N)c1ncnc2ccccc12)c1nc2ccccc2[nH]1 [compound #263]
[1]
  expression of Cyp1a1 in vivo (ileum): significantly induced the expression of Cyp1a1
[3]
  inhibition of TLR4 signaling in mouse enteroids (Tnf-a induction by LPS, FIG. 15b, FIG. 19): significantly inhibited the TLR4 signaling
[4]
  expression of IL-1b, IL-6, Tnf-a and Lcn2 in the intestinal epithelium: reduced expression
  histological injury (H&E, ileum): reduced histological injury
  severity of NEC: significantly reduced the severity of experimental NEC; also recorded: protects against experimental NEC
